These results are taken from ChEMBL document CHEMBL1148308, “Peptide-based inhibitors of the hepatitis C virus NS3 protease: structure-activity relationship at the C-terminal position” (J Med Chem, 2004).

Where a SMILES comes first, the peptide text is derived from it. [ ]: non-standard residue; d: D form. Hyp(2-Ph-quinolin-4-yl) = O=C(O)[C@@H]1C[C@@H](Oc2cc(-c3ccccc3)nc3ccccc23)CN1; Ac3c(1R,2S-2-vinyl) = C=C[C@@H]1C[C@]1(N)C(=O)O; Chg = N[C@H](C(=O)O)C1CCCCC1

This test in a line: Inhibitory activity against the hepatitis C virus NS3 protease was determined. The arrangement: species or system Hepacivirus hominis.
Consider `CC(=O)N[C@H](C(=O)N[C@H](C(=O)N1C[C@H](OCc2cccc3ccccc23)C[C@H]1C(=O)N[C@]1(C(=O)O)C[C@H]1CCc1ccccc1)C(C)C)C1CCCCC1`, for which the half-maximal inhibitory concentration (IC50) was determined as 22 µM.

`CC(=O)N[C@H](C(=O)N[C@H](C(=O)N1C[C@H](OCc2cccc3ccccc23)C[C@H]1C(=O)N[C@@]1(C(=O)O)C[C@@H]1CCc1ccccc1)C(C)C)C1CCCCC1` had a half-inhibitory concentration (IC50) of 90 µM.

In turn, `CC(=O)N[C@H](C(=O)N[C@H](C(=O)N1C[C@H](OCc2cccc3ccccc23)C[C@H]1C(=O)N[C@@]1(C(=O)O)C[C@@H]1Cc1ccccc1)C(C)C)C1CCCCC1` came in with an IC50 of 81 µM.

`CC(=O)N[C@H](C(=O)N[C@H](C(=O)N1C[C@H](OCc2cccc3ccccc23)C[C@H]1C(=O)N[C@]1(C(=O)O)C[C@H]1C(C)C)C(C)C)C1CCCCC1` displayed a half-maximal inhibitory concentration (IC50) of 5.5 µM.

Take `CC(=O)N[C@H](C(=O)N[C@H](C(=O)N1C[C@H](OCc2cccc3ccccc23)C[C@H]1C(=O)N[C@@]1(C(=O)O)C[C@@H]1C(C)C)C(C)C)C1CCCCC1`: half-maximal inhibition (IC50) required 640 µM.

`CC(=O)N[C@H](C(=O)N[C@H](C(=O)N1C[C@H](OCc2cccc3ccccc23)C[C@H]1C(=O)N[C@]1(C(=O)O)C[C@H]1Cc1ccccc1)C(C)C)C1CCCCC1` registered an IC50 of 14 µM. Against the preceding compound, the IC50 is about 46-fold lower.

`C=C[C@@H]1C[C@]1(NC(=O)[C@@H]1C[C@@H](Oc2cc(-c3ccccc3)nc3ccccc23)CN1C(=O)[C@@H](NC(=O)[C@@H](NC(C)=O)C1CCCCC1)C(C)C)C(=O)O` (Ac-[Chg]V[Hyp(2-Ph-quinolin-4-yl)][Ac3c(1R,2S-2-vinyl)]-OH): half-maximal inhibition (IC50) required 0.019 µM.

In turn, `CC(=O)N[C@H](C(=O)N[C@H](C(=O)N1CC(OCc2ccccc2)CC1C(=O)N[C@@H](CS)C(=O)O)C(C)C)C1CCCCC1` (single isomer, unassigned) gave a half-inhibitory concentration (IC50) of 140 µM.

Regarding `CC(=O)N[C@H](C(=O)N[C@H](C(=O)N1CC(OCc2ccccc2)CC1C(=O)NC1(C(=O)O)CC1)C(C)C)C1CCCCC1` (single isomer, unassigned), inhibition was half-maximal at 330 µM (IC50).

Compound `CC[C@H]1C[C@@]1(NC(=O)C1CC(OCc2cccc3ccccc23)CN1C(=O)[C@@H](NC(=O)[C@@H](NC(C)=O)C1CCCCC1)C(C)C)C(=O)O` (single isomer, unassigned) gave an IC50 of 32 µM. This IC50 lies about 10-fold lower than the previous one.

As to `COc1ccc2c(OC3CC(C(=O)NC4(C(=O)O)CC4)N(C(=O)[C@@H](NC(=O)[C@@H](NC(C)=O)C4CCCCC4)C(C)C)C3)ccnc2c1` (single isomer, unassigned), half-maximal inhibition (IC50) was put at 0.85 µM.

For `CCC[C@H](NC(=O)C1CC(OCc2cccc3ccccc23)CN1C(=O)[C@@H](NC(=O)[C@@H](NC(C)=O)C1CCCCC1)C(C)C)C(=O)O` (single isomer, unassigned), the IC50 came to 23 µM. This IC50 lies about 27-fold higher than the previous one.

Compound `CCC[C@H]1C[C@@]1(NC(=O)C1CC(OCc2cccc3ccccc23)CN1C(=O)[C@@H](NC(=O)[C@@H](NC(C)=O)C1CCCCC1)C(C)C)C(=O)O` (single isomer, unassigned) had an IC50 of 41 µM.

Turning to `C=C[C@@H]1C[C@]1(NC(=O)C1CC(OCc2ccccc2)CN1C(=O)[C@@H](NC(=O)[C@@H](NC(C)=O)C1CCCCC1)C(C)C)C(=O)O` (single isomer, unassigned), the IC50 stood at 9.7 µM.

Turning to `CC(=O)N[C@H](C(=O)N[C@H](C(=O)N1CC(OCc2cccc3ccccc23)CC1C(=O)N[C@]1(C(=O)O)C[C@H]1C)C(C)C)C1CCCCC1` (single isomer, unassigned), the IC50 was determined as 22 µM.

Take `CC[C@@H]1C[C@]1(NC(=O)C1CC(OCc2cccc3ccccc23)CN1C(=O)[C@@H](NC(=O)[C@@H](NC(C)=O)C1CCCCC1)C(C)C)C(=O)O` (single isomer, unassigned): half-maximal inhibition (IC50) required 4.8 µM.

In turn, `CC(=O)N[C@H](C(=O)N[C@H](C(=O)N1CC(OCc2cccc3ccccc23)CC1C(=O)NC1(C(=O)O)CC1)C(C)C)C1CCCCC1` (single isomer, unassigned) displayed an IC50 of 14 µM.

Turning to `C=C[C@@H]1C[C@]1(NC(=O)C1CC(OCc2cccc3ccccc23)CN1C(=O)[C@@H](NC(=O)[C@@H](NC(C)=O)C1CCCCC1)C(C)C)C(=O)O` (single isomer, unassigned), the half-inhibitory concentration (IC50) amounted to 0.63 µM.

Compound `CC(=O)N[C@H](C(=O)N[C@H](C(=O)N1CC(Oc2cc(-c3ccccc3)nc3ccccc23)CC1C(=O)NC1(C(=O)O)CC1)C(C)C)C1CCCCC1` (single isomer, unassigned) came in with an IC50 of 0.55 µM.

Regarding `CCC1(CC)C[C@]1(NC(=O)C1CC(OCc2cccc3ccccc23)CN1C(=O)[C@@H](NC(=O)[C@@H](NC(C)=O)C1CCCCC1)C(C)C)C(=O)O` (single isomer, unassigned), the IC50 was 310 µM.

Regarding `CCC[C@@H]1C[C@]1(NC(=O)C1CC(OCc2cccc3ccccc23)CN1C(=O)[C@@H](NC(=O)[C@@H](NC(C)=O)C1CCCCC1)C(C)C)C(=O)O` (single isomer, unassigned), the IC50 was 5.5 µM. Against the preceding compound, the IC50 is about 56-fold lower.

On to `CC(=O)N[C@H](C(=O)N[C@H](C(=O)N1CC(OCc2cccc3ccccc23)CC1C(=O)N[C@@]1(C(=O)O)C[C@@H]1C)C(C)C)C1CCCCC1` (single isomer, unassigned), for which it took 180 µM to reach half-maximal inhibition (IC50).

Compound `CCC[C@H](NC(=O)C1CC(OCc2ccccc2)CN1C(=O)[C@@H](NC(=O)[C@@H](NC(C)=O)C1CCCCC1)C(C)C)C(=O)O` (single isomer, unassigned) displayed an IC50 of 530 µM. Against the preceding compound, the IC50 is about 2.9-fold higher.

On to `C=C[C@@H]1C[C@]1(NC(=O)C1CC(Oc2ccnc3cc(OC)ccc23)CN1C(=O)[C@@H](NC(=O)[C@@H](NC(C)=O)C1CCCCC1)C(C)C)C(=O)O` (single isomer, unassigned), for which the concentration for half-maximal inhibition (IC50) is 0.029 µM.

For orientation: IC50 means the concentration needed to halve the response being measured. Lower therefore signals higher potency.
